From BindingDB's records for patent US8507533 (Pfizer, 2013)
Where “and” joins values, the source holds several entries; their conditions need not be identical. Equal values may be shown once.

Molecular target: Glucagon receptor (Homo sapiens, UniProt P47871)
Assay: Glucagon SPA Assay
Conditions: pH 7.4
Text: The Glucagon SPA assay is used to determine the ability of test compounds to block the binding of glucagon-cex to the glucagon receptors.

Chain of Glucagon receptor (P47871 whole entry): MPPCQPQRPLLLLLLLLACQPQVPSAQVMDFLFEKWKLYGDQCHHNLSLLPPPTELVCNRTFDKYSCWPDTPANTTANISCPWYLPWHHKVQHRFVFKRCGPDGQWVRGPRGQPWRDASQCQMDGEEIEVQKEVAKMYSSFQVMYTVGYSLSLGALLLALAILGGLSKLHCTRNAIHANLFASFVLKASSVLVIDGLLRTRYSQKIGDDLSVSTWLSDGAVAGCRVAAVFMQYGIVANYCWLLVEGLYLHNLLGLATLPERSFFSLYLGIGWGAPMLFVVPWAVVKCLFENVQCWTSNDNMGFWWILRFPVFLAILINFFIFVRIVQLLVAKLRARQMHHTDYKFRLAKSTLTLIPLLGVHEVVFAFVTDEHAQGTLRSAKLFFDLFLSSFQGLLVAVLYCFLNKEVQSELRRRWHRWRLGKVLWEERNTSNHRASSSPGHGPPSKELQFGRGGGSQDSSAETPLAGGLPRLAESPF

Ki | Compound
183 nM and 297 nM | Cc1cc(-n2cc(C(F)(F)F)cn2)ccc1C(Nc1ccc(C(=O)NCCC(=O)O)cn1)C1CCCCC1 (single isomer, unassigned) [US8507533, 337]
58 nM | CCCC(Oc1ccc(-n2cc(-c3ccccc3)cn2)nc1)c1ccc(C(=O)NCCC(=O)O)cc1 (configuration not stated) [US8507533, 133]
